Test results published in the supplement of paper PMC10627819.

Columns and labels:
B. subtilis 168 [1] = assay: fitness (endpoint OD595 vs no drug) (fraction); higher = more growth
Procedure, shortened: (§1)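 Background-subtracted growth curves were the basis for fitness, taken as the optical density at entry into stationary phase over the robust mean of no-drug control wells. A cap of 1 was applied. The curves came from OD595 readings every 30 min for 14 h at 37 °C, in 384-well plates seeded at OD595 0.01 with 30 µl, or 55 µl for S. pneumoniae.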

S. aureus DSM 20231 [2] = assay: as above
Procedure, shortened: as §1

S. aureus Newman [3] = assay: as above
Procedure, shortened: as §1

S. pneumoniae D39V [4] = assay: as above
Procedure, shortened: as §1

B. subtilis 168 [5] = assay: Bliss interaction score (quartile over a dose matrix) (fitness difference); higher = more antagonism (negative = synergy)
Procedure, shortened: (§2)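 Fitness was derived from optical density at entry into stationary phase, divided by the robust mean of the no-drug wells on the same plate. That reading was taken as OD595, and the ratio was capped at 1. Single-drug fitness was inferred from the combination data. The Bliss score, observed fitness minus the expected product of single-drug fitness, was summarised as quartiles over technical, biological and donor/recipient replicates.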

S. aureus DSM 20231 [6] = assay: as above
Procedure, shortened: as §2

S. aureus Newman [7] = assay: as above
Procedure, shortened: as §2

S. pneumoniae D39V [8] = assay: as above
Procedure, shortened: as §2
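Throughout, for Bliss interaction score (quartile over a dose matrix): first quartile when negative (synergy) and third quartile when positive (antagonism).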

C[C@@H]1O[C@@H]1P(=O)(O)O [Fosfomycin] + Cc1onc(-c2ccccc2)c1C(=O)N[C@@H]1C(=O)N2[C@@H]1SC(C)(C)[C@@H]2C(=O)O [Oxacillin]
Conditions | fitness
B. subtilis 168 [1], first compound 1.562 µg/mL, partner 0.002 µg/mL | 0.65
B. subtilis 168 [1], first compound 1.562 µg/mL, partner 0.004 µg/mL | 0.696
B. subtilis 168 [1], first compound 1.562 µg/mL, partner 0.008 µg/mL | 0.568
B. subtilis 168 [1], first compound 3.124 µg/mL, partner 0.002 µg/mL | 0.566
B. subtilis 168 [1], first compound 3.124 µg/mL, partner 0.004 µg/mL | 0.546
B. subtilis 168 [1], first compound 3.124 µg/mL, partner 0.008 µg/mL | 0.51
B. subtilis 168 [1], first compound 6.248 µg/mL, partner 0.002 µg/mL | 0.358
B. subtilis 168 [1], first compound 6.248 µg/mL, partner 0.004 µg/mL | 0.33
B. subtilis 168 [1], first compound 6.248 µg/mL, partner 0.008 µg/mL | 0.281
S. aureus DSM 20231 [2], first compound 0.781 µg/mL, partner 0.0156 µg/mL | 0.539
S. aureus DSM 20231 [2], first compound 0.781 µg/mL, partner 0.0312 µg/mL | 0.504
S. aureus DSM 20231 [2], first compound 0.781 µg/mL, partner 0.0625 µg/mL | 0.489
S. aureus DSM 20231 [2], first compound 1.562 µg/mL, partner 0.0156 µg/mL | 0.442
S. aureus DSM 20231 [2], first compound 1.562 µg/mL, partner 0.0312 µg/mL | 0.459
S. aureus DSM 20231 [2], first compound 1.562 µg/mL, partner 0.0625 µg/mL | 0.362
S. aureus DSM 20231 [2], first compound 3.124 µg/mL, partner 0.0156 µg/mL | 0.402
S. aureus DSM 20231 [2], first compound 3.124 µg/mL, partner 0.0312 µg/mL | 0.335
S. aureus DSM 20231 [2], first compound 3.124 µg/mL, partner 0.0625 µg/mL | 0.0751
S. aureus Newman [3], first compound 0.781 µg/mL, partner 0.0156 µg/mL | 0.606
S. aureus Newman [3], first compound 0.781 µg/mL, partner 0.0312 µg/mL | 0.563
S. aureus Newman [3], first compound 0.781 µg/mL, partner 0.0625 µg/mL | 0.49
S. aureus Newman [3], first compound 1.562 µg/mL, partner 0.0156 µg/mL | 0.475
S. aureus Newman [3], first compound 1.562 µg/mL, partner 0.0312 µg/mL | 0.421
S. aureus Newman [3], first compound 1.562 µg/mL, partner 0.0625 µg/mL | 0.279
S. aureus Newman [3], first compound 3.124 µg/mL, partner 0.0156 µg/mL | 0.145
S. aureus Newman [3], first compound 3.124 µg/mL, partner 0.0312 µg/mL | 0.0796
S. aureus Newman [3], first compound 3.124 µg/mL, partner 0.0625 µg/mL | 0.0515
S. pneumoniae D39V [4], first compound 1.25 µg/mL, partner 0.005 µg/mL | ≥ 1
S. pneumoniae D39V [4], first compound 1.25 µg/mL, partner 0.01 µg/mL | 0.996
S. pneumoniae D39V [4], first compound 1.25 µg/mL, partner 0.02 µg/mL | 0.916
S. pneumoniae D39V [4], first compound 1.25 µg/mL, partner 0.04 µg/mL | 0.3
S. pneumoniae D39V [4], first compound 2.5 µg/mL, partner 0.005 µg/mL | 0.982
S. pneumoniae D39V [4], first compound 2.5 µg/mL, partner 0.01 µg/mL | 0.913
S. pneumoniae D39V [4], first compound 2.5 µg/mL, partner 0.02 µg/mL | 0.843
S. pneumoniae D39V [4], first compound 2.5 µg/mL, partner 0.04 µg/mL | 0.181
S. pneumoniae D39V [4], first compound 5 µg/mL, partner 0.005 µg/mL | 0.85
S. pneumoniae D39V [4], first compound 5 µg/mL, partner 0.04 µg/mL | 0.0702

fitness, B. subtilis 168 [1], one replicate
Conditions | partner 0.0078 µg/mL | partner 0.0155 µg/mL | partner 0.031 µg/mL | partner 0.075 µg/mL | partner 0.15 µg/mL | partner 0.3 µg/mL
first compound 1.562 µg/mL | 0.807 | 0.835 | 0.797 | 0.339 | 0.0497 | 0.0455
first compound 3.124 µg/mL | 0.663 | 0.68 | 0.613 | 0.164 | 0.0172 | 0.0362
first compound 6.248 µg/mL | 0.548 | 0.531 | 0.504 | 0.0968 | 0.0104 | 0.0381

Conditions | Bliss interaction score
B. subtilis 168 [5] | -0.0577
S. aureus DSM 20231 [6] | -0.11
S. aureus Newman [7] | -0.0668
S. pneumoniae D39V [8] | -0.154
